# Data reported in PubChem BioAssay (NCI).
#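 Growth conditions: 96-well plates. Treatment: test compound, 48 hours, 5 concentrations. Analysis: linear interpolation between bracketing concentrations; unreached endpoints set to highest concentration. At the TGI there is no net growth.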
# Experiments:
# Test in all cases: growth of human tumour cells (NCI), 48 h
# BT-549 breast = tested on: BT-549 breast
# LOX IMVI melanoma = tested on: LOX IMVI melanoma
# 786-0 renal = tested on: 786-0 renal
# DU-145 prostate = tested on: DU-145 prostate
# SNB-19 CNS = tested on: SNB-19 CNS
# UACC-257 melanoma = tested on: UACC-257 melanoma
# A498 renal = tested on: A498 renal
# TK-10 renal = tested on: TK-10 renal
# M14 melanoma = tested on: M14 melanoma
# NCI/ADR-RES ovarian = tested on: NCI/ADR-RES ovarian
# HCT-116 colon = tested on: HCT-116 colon
# HCC-2998 colon = tested on: HCC-2998 colon
# SK-OV-3 ovarian = tested on: SK-OV-3 ovarian
# K-562 leukemia = tested on: K-562 leukemia
# SF-295 CNS = tested on: SF-295 CNS
# SK-MEL-28 melanoma = tested on: SK-MEL-28 melanoma
# A549 NSCLC = tested on: A549 NSCLC
# SN12C renal = tested on: SN12C renal
# MOLT-4 leukemia = tested on: MOLT-4 leukemia
# M19-MEL melanoma = tested on: M19-MEL melanoma
SMILES,TGI (BT-549 breast),TGI (LOX IMVI melanoma),TGI (786-0 renal),TGI (DU-145 prostate),TGI (SNB-19 CNS),TGI (UACC-257 melanoma),TGI (A498 renal),TGI (TK-10 renal),TGI (M14 melanoma),TGI (NCI/ADR-RES ovarian),TGI (HCT-116 colon),TGI (HCC-2998 colon),TGI (SK-OV-3 ovarian),TGI (K-562 leukemia),TGI (SF-295 CNS),TGI (SK-MEL-28 melanoma),TGI (A549 NSCLC),TGI (SN12C renal),TGI (MOLT-4 leukemia),TGI (M19-MEL melanoma)
CN(C)c1ccc(/C=C2/SC(=S)NC2=O)cc1,> 100 µM,> 100 µM,> 100 µM,> 100 µM,> 100 µM,> 100 µM,> 100 µM,53 µM,> 100 µM,> 100 µM,> 100 µM,> 100 µM,> 100 µM,> 100 µM,> 100 µM,> 100 µM,> 100 µM,> 100 µM,> 100 µM,
C[n+]1c2ccccc2c(CNc2ccc(S(=O)(=O)N=C(N)N)cc2)c2ccccc21,,20.2 µM,43.4 µM,,31.6 µM,41.3 µM,86.2 µM,> 100 µM,28 µM,,27.2 µM,39.2 µM,> 100 µM,52 µM,23.4 µM,40.7 µM,> 100 µM,27.8 µM,1.7 µM,42 µM
S=C1SC(=Nc2ccccc2)C(=Nc2ccccc2)N1c1ccccc1,> 100 µM,,,> 100 µM,> 100 µM,,> 100 µM,,> 100 µM,> 100 µM,> 100 µM,> 100 µM,> 100 µM,> 100 µM,> 100 µM,> 100 µM,,> 100 µM,> 100 µM,
Cc1cc(NC(=S)Nc2ccccc2)c(NC(=S)Nc2ccccc2)cc1C,,> 100 µM,,,> 100 µM,> 100 µM,98.3 µM,,,28.9 µM,> 100 µM,> 57.6 µM,> 75 µM,41.2 µM,62.2 µM,> 100 µM,> 100 µM,> 100 µM,> 60.1 µM,> 100 µM
COC(=O)CCC(=O)CC(=O)C1=NS(=O)(=O)c2nc(S(N)(=O)=O)c(Cl)cc2N1,,> 100 µM,,,> 100 µM,> 100 µM,> 100 µM,> 100 µM,> 100 µM,,> 100 µM,> 100 µM,> 100 µM,> 100 µM,> 100 µM,> 100 µM,> 100 µM,> 100 µM,> 100 µM,> 100 µM
CC(C)(C)NCc1cc(Nc2ccnc3cc(Cl)ccc23)cc(-c2ccc(Cl)cc2)c1O,,5.64 µM,3.98 µM,15 µM,18.2 µM,4.11 µM,11.5 µM,7.76 µM,4 µM,14.4 µM,5.79 µM,3.82 µM,16.9 µM,2.75 µM,6.23 µM,3.26 µM,20.6 µM,8.9 µM,4.55 µM,
COCc1nc2c(OC)cc(-c3nc4nc(N5CCN(C)CC5)ccc4[nH]3)c(OC)c2[nH]1,> 100 µM,> 100 µM,> 100 µM,> 100 µM,> 100 µM,61 µM,> 100 µM,> 100 µM,42.4 µM,> 100 µM,> 100 µM,> 100 µM,> 100 µM,> 100 µM,> 100 µM,> 100 µM,> 100 µM,> 100 µM,> 100 µM,
COCO[C@@H]1C[C@H]2C(O)Nc3ccccc3C(=O)N2C1 (stereo partly specified),,> 100 µM,,> 100 µM,> 100 µM,> 100 µM,> 100 µM,> 100 µM,> 100 µM,> 100 µM,,> 100 µM,> 100 µM,> 100 µM,> 100 µM,> 100 µM,> 100 µM,,> 100 µM,
O=c1[nH]c(Nc2ccc(F)c(Cl)c2)nc2nc[nH]c12,> 100 µM,> 100 µM,> 100 µM,> 100 µM,> 100 µM,> 100 µM,> 100 µM,> 100 µM,> 100 µM,> 100 µM,> 100 µM,> 100 µM,> 100 µM,,> 100 µM,> 100 µM,> 100 µM,> 100 µM,39.5 µM,
COc1cc2c(cc1OCCCOc1cc(-c3ccc(F)cc3)nc(C)n1)N=C[C@@H]1CCCN1C2=O,,28.3 µM,31.5 µM,36.1 µM,64.4 µM,43 µM,26.4 µM,34.5 µM,29.3 µM,,30.6 µM,,62.7 µM,,31 µM,44.1 µM,43 µM,32.3 µM,61.1 µM,
